Key:
Settings in all cases: Escherichia coli
[1] = target: T1, Delta-aminolevulinic acid dehydratase (Homo sapiens) (UniProt P13716); test: Retention of porphobilinogen synthase activity in presence of 0.3 uM of the compound
T1 sequence (whole entry): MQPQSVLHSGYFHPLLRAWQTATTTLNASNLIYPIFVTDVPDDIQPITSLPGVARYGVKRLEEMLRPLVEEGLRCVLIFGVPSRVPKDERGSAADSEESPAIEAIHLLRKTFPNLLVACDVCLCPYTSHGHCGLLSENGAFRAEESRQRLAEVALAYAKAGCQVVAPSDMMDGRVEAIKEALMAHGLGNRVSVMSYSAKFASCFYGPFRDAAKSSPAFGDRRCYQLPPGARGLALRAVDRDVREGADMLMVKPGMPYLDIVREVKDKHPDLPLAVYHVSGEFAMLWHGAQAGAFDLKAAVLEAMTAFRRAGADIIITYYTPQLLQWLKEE

[2] = target: T1, Delta-aminolevulinic acid dehydratase (Homo sapiens); test: Inhibitory activity against porphobilinogen synthase in presence of 5 mM for 30 min; No loss in activity
[3] = target: T1, Delta-aminolevulinic acid dehydratase (Homo sapiens); test: Inhibitory activity against porphobilinogen synthase in presence of 150 uM over 30 min

NCC(=O)CCC(=O)O
Retention [1]: 80%

NCC(=O)OCC(=O)O
Loss of activity [2]: No loss in activity

NCC(=O)SCC(=O)O
Loss of activity [3]: 80%

From ChEMBL document CHEMBL1128629, “Mechanism-based inactivation of porphobilinogen synthase: Substitution of ketone functionality in the substrate with a thioester” (Bioorg Med Chem Lett, 1995)
